Like-named read-outs stand apart in the source and are kept apart here.
What was measured:
[1] = test system: bone lesions; experiment: phase I clinical trials of MBC-11 in patients with CIBD, bone lesions imaged by 18F-FDG-PET/CT; details: 15 patients, after MBC-11 therapy
Procedure: (§1) MBC-11 was tested in recently completed phase I clinical trials in patients with CIBD.

[2] = clinically established MTD of MBC-11; assay type: in vivo, Human; details: 2-hour infusion for up to 5 consecutive days
Procedure: The current clinically established MTD of MBC-11 indicates the method should be used where MBC-11 is administered at or below 5/mg/kg/day via a 2-hour infusion for up to 5 consecutive days and Xofigo is administered at or below the standard of care dosing regimen.

[3] = tolerability in mice (weight loss, nephrotoxicity)
Procedure: (§2) 143B-luc cells were then implanted into nude mice via intratibial injection, creating an orthotopic model for OS. The presence and growth of tumors was confirmed with in vivo imaging (Xenogen). Mice (N=8/treatment group) were then treated with 60 mg/kg GEM twice weekly and 15 mg/kg DTX once weekly, alone or in combination (15 mg/kg DTX with 20, 40 or 60 mg/kg GEM) and monitored for weight loss and tumor growth.
(§3) Tolerability for IB and GEM-IB was tested in a mouse model system. […] To ensure the health of mice throughout a longer study, doses were reduced to 6 mg/kg IB and equimolar doses of GEM-IB (14 mg/kg) and GEM (6 mg/kg) with 15 mg/kg DTX. Mice were implanted with the 143B-luc cells via intratibial injection and treatment started 4 days after implantation.
(§4) Mice were then treated with GEM-IB, GEM-IB with DTX, or the individual agents of GEM, DTX, or IB.

[4] = in vivo MicroCT of bone in OS mouse model; details: in vivo MicroCT 22 days after starting treatment; 6 mg/kg IB or 14 mg/kg GEM-IB
Procedure: To ensure the health of mice throughout a longer study, doses were reduced to 6 mg/kg IB and equimolar doses of GEM-IB (14 mg/kg) and GEM (6 mg/kg) with 15 mg/kg DTX. Mice were implanted with the 143B-luc cells via intratibial injection and treatment started 4 days after implantation.

[5] = test system: 143B-luc; experiment: cell culture treatment of human OS cell line 143B-luc (IC50, Bliss analysis)
Procedure: This was determined in culture with a human OS cell line—143B-luc (143B cells were transfected to express luciferase (luc) for use in a mouse model system).

[6] = MTD and tolerability of GEM-IB dosing regimens; assay type: in vivo
From the text: The MTD of the conjugate of Gemcitabine-to-Ibandronate is lower than that of MBC-1. Therefore, a conjugate of Gemcitabine-to-Ibandronate can be administered at or below 5/mg/kg/day via a 2-hour infusion for up to 5 consecutive days and Xofigo administered at or below its standard of care dosing regimen.

[7] = mouse, in vivo
Procedure: as §2, §3, §4

[8] = test system: 143B-luc cells; experiment: orthotopic OS model: Kaplan-Meier survival until euthanasia due to large tumor size; details: euthanized when largest tumor-laden leg diameter reached 10 mm above normal leg diameter (FIG. 4)
From the text: Mice were euthanized when largest tumor-laden leg diameter reached 10 mm above normal leg diameter. […] Mice euthanized for weight loss are not indicated as deaths in this chart, and are indicated as tick marks on day euthanized.

[9] = test system: prostate cancer induced bone disease; experiment: in vivo model of prostate cancer induced bone disease
Procedure: as §1

[10] = 60 mg/kg GEM twice weekly alone, 15 mg/kg DTX once weekly alone, or 15 mg/kg DTX with 20 or 40 mg/kg GEM, N=8/group

CC(O)(P(=O)(O)O)P(=O)(O)OP(=O)(O)OC[C@H]1O[C@@H](n2ccc(N)nc2=O)[C@@H](O)[C@@H]1O (stereo partly shown) [MBC-11]
bone lesions with a significant reduction (>25%) in glucose avidity ([1]; 206 bone lesions imaged (18F-FDG-PET/CT)): 111 lesions | bone lesions significantly reduced in activity ([1]; 206 bone lesions imaged): 53.8% | dose indicated by the clinically established MTD [2]: up to 5 /mg/kg/day

CCCCCN(C)CCC(O)(P(=O)(O)O)P(=O)(O)O [IB, ibandronate]
weight loss ([3]; IB 12 mg/kg twice weekly): only minimal weight loss | nephrotoxicity ([3]; at higher levels): possible nephrotoxicity | tolerability ([3]; at lower doses): well tolerated | bone volume density [4]: high | trabecular number [4]: high

Nc1ccn([C@@H]2O[C@H](CO)[C@@H](O)C2(F)F)c(=O)n1 [GEM, Gemcitabine]
weight loss [3, 10]: did not exhibit any weight loss | IC50 ([5]; Homo sapiens): 9 nM

CCCCCN(C)CCC(O)(P(=O)(O)O)P(=O)(O)OP(=O)(O)OC[C@H]1O[C@@H](n2ccc(N)nc2=O)C(F)(F)[C@@H]1O (stereo partly shown) [GEM-IB]
tolerability ([6]; Monday, Wednesday and Friday dosing for three weeks at twice the 6 mg/kg daily dose): well tolerated | MTD ([6]; dosing for five sequential days): 6 mg/kg/day | MTD compared with MBC-1 ([6]; in vivo): lower | nephrotoxicity [7]: possible nephrotoxicity | tolerability [7]: well tolerated | bone volume density [4]: high | trabecular number [4]: high | day after treatment initiation from which mice were sacrificed [8]: 28 days | activity compared to GEM-etidronate (GEM-ET), MBC-11 and cytarabine-IB ([9]; in vivo): more active | metastases after treatment ([9]; in vivo): significantly reduced | survival ([9]; study not designed for a survival endpoint): improved survival trend

CC(=O)O[C@@]12CO[C@@H]1C[C@H](O)[C@@]1(C)C(=O)[C@H](O)C3=C(C)[C@@H](OC(=O)[C@H](O)[C@@H](NC(=O)OC(C)(C)C)c4ccccc4)C[C@@](O)([C@@H](OC(=O)c4ccccc4)[C@H]21)C3(C)C [DTX, docetaxel]
weight loss [3, 10]: did not exhibit any weight loss | IC50 ([5]; 143B-luc cells in culture, individual drug agent): 72 nM | reduction of IC50 of DTX ([5]; in the presence of 1 nM GEM versus DTX alone): 600 fold | IC50 ([5]; read-out: IC50 of DTX in the presence of GEM, 143B-luc cells in culture, in the presence of 1 nM GEM): 0.12 nM
